± gives the expanded uncertainty stated by the source.
Assay: mn = molality of the nth substance listed, in mol/kg
Conditions: 101 kPa, Liquid, Vibrating tube method

[Cl-].[Na+] [sodium chloride] + O
mass density [kg/m3]
Conditions	m1 = 0.2	m1 = 0.4	m1 = 0.6	m1 = 0.8	m1 = 1	m1 = 1.5
288.15 K	1007.43 ± 0.31	1015.66 ± 0.33	1023.65 ± 0.34	1031.47 ± 0.35	1039.16 ± 0.37	1058.09 ± 0.41
298.15 K	1005.16 ± 0.31	1013.14 ± 0.32	1020.96 ± 0.34	1028.64 ± 0.35	1036.19 ± 0.37	1054.58 ± 0.4
308.15 K	1002.07 ± 0.31	1009.91 ± 0.32	1017.59 ± 0.33	1025.13 ± 0.35	–	1050.69 ± 0.4
318.15 K	998.17 ± 0.3	1005.91 ± 0.32	–	1020.82 ± 0.34	1028.35 ± 0.36	1046.38 ± 0.39

Reference: the NIST ThermoML archive (doi:10.1016/j.tca.2013.08.007)
